In experiment [1] the target is JAK1 (Homo sapiens (Human), UniProt P23458). As to the kind of experiment: JAK Caliper Enzyme Assay at 1 mM ATP (JAK1). The experiment is classed as biochemical. The following applies: Caliper assay at 1 mM ATP.
The target of experiment [2] is JAK2 (Homo sapiens (Human), UniProt O60674). In words: JAK Caliper Enzyme Assay at 1 mM ATP (JAK2). In kind it is biochemical. The settings on record: Caliper assay at 1 mM ATP.
The target of experiment [3] is JAK3 (Homo sapiens (Human), UniProt P52333). As to the kind of experiment: JAK Caliper Enzyme Assay at 1 mM ATP (JAK3). In kind it is biochemical. The settings on record: Caliper assay at 1 mM ATP.
Sequence of JAK3 (P52333 whole entry, species assumed): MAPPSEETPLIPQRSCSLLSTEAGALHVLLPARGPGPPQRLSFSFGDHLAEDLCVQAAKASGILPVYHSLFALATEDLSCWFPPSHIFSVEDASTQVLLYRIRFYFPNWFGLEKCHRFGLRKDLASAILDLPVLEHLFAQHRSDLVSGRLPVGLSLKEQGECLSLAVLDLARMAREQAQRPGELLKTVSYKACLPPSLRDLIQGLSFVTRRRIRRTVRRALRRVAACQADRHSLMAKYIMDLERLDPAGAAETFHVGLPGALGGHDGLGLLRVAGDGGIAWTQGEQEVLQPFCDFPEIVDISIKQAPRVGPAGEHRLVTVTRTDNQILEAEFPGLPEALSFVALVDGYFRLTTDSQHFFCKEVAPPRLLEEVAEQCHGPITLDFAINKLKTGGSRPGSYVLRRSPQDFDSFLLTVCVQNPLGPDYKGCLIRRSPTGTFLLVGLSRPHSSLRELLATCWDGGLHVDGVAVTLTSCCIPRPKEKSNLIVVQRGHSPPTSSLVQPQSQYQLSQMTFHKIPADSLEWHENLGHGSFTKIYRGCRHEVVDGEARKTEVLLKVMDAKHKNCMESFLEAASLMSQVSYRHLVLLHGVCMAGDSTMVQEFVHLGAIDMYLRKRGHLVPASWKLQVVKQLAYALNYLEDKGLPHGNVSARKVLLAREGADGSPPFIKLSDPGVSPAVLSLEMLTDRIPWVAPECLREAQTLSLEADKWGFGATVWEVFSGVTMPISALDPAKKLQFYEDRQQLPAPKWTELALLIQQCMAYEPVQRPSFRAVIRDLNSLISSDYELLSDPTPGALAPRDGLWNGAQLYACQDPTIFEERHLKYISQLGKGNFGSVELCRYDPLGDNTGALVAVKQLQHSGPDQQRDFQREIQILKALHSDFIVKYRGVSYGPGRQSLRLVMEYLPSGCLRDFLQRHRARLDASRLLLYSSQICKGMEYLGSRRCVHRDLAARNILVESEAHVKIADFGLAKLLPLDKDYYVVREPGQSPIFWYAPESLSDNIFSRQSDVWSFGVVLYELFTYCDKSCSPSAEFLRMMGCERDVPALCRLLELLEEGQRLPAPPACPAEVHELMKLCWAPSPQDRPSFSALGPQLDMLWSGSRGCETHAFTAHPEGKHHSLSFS
Experiment [4] addresses TYK2 (Homo sapiens (Human), UniProt P29597). In words: JAK Caliper Enzyme Assay at 1 mM ATP (TYK2). In kind it is biochemical. The following applies: Caliper assay at 1 mM ATP.
Experiment [5] has as its system rhIFNγ stimulated STAT-3 phosphorylation in the A549 human epithelial cell line. As to the kind of experiment: A549 Cell Assay: Inhibition of pSTAT3. The experiment is classed as cell-based. The following applies: A549 cells. The procedure: A549 Cell Assay: Inhibition of pSTAT3
An assay measuring the efficacy of JAK inhibitors on the functional response of recombinant human interferon γ (rhIFNγ) stimulated STAT-3 phosphorylation in the A549 human epithelial cell line.
A549 cells (ATCC #CCL-185), were plated at 30,000 cells/well in 96 well flat bottomed tissue culture plates (BD#353072) in 200 μL of growth medium (DMEM, Pfizer media prep, with 10% Fetal Bovine Serum, Sigma #F4135, 2 mM L-Glutamine, Pfizer media prep, 100 U/mL penicillin, Pfizer media prep, and 200 μg/ml streptomycin, Pfizer media prep), and cultured at 37° C., 5% CO2 incubator for 18 hours. Growth medium was removed by vacuum aspiration (V&P Scientific #vp187 bp-60), and 90 μL of pre-warmed assay medium (DMEM with 0.2% BSA, Miltenyi #130-091-376) was added to each well and incubated for 15 minutes at 37° C. 10 μL of vehicle control or test compound (final concentration range of 0.3 nM to 10 μM with 0.1% DMSO) was added to the cells. Plates were incubated at 37° C. for 1 hour. After compound incubation, 10 μL of 220 ng/mL recombinant human IFNγ (R&D Systems #285-IF, final rhIFNγ concentration of 20 ng/mL) was added to the cells and plates were incubated for 30 minutes at 37° C. Wells containing A549 cells, medium with 0.1% DMSO and no rhIFNγ were used as background controls. After rhIFNγ stimulation, media was aspirated from each well and 35 μL/well of iced-cold MSD lysis buffer containing protease and phosphatase inhibitors from Phospho-STAT3 Tyr705 assay kit (Meso-Scale Discovery #K150DID) was added to each well. Plates were incubated at 4° C. with shaking for 30 minutes. Cell lysates were assayed following the MSD Phospho-STAT3 Tyr705 assay kit protocol to detect pSTAT3.
(§1) Data were collected and transformed into percent inhibition and calculated using the following formula: […]

Experiment [6] has as its system rhIL-2 stimulated STAT5 phosphorylation in isolated human T cells. As to the kind of experiment: Human T Cell Assay: Inhibition of pSTAT5. The experiment is classed as cell-based. Here is the method:
Human T Cell Assay: Inhibition of pSTAT5
An assay measuring the efficacy of JAK inhibitors on the functional response of recombinant human interleukin-2 (rhIL-2) stimulated STAT5 phosphorylation in isolated human T cells.
Human whole blood from individual donors was collected from the phlebotomy unit on-site. Peripheral venous blood (30-60 mL) from healthy volunteers of either sex was used as the source of T cells. T cell isolation from venous whole blood is routinely performed in a class II microbiological safety cabinet. Each sample was collected into between 3 and 6 10 mL Sodium Heparin Vacutainer tubes (BD #367874). The blood was poured into sterile 50 mL conicals (Corning #430828) and incubated with the T cell Rosette Sep Cocktail (Stemcell Technologies #15061) at 50 μL/mL antibody/blood ratio for 20 min. with shaking at room temperature. The blood/antibody mixture was then diluted 1:2 with PBS (Pfizer media prep)/2% FBS (Sigma #F4135) and 30 mL of the mixture was layered onto 15 mL Ficoll-Hypaque (GE Healthcare #17-1440-03) in 50 mL conical tubes. The tubes were then centrifuged at 1200×g for 20 min. at room temperature with no brake. Following centrifugation the T cells formed a buffy coat between the Ficoll-Hypaque and plasma layers. The plasma above the buffy coats was removed to within 5 mm of the buffy coat using a sterile Pasteur pipette. The buffy coats were then collected into fresh sterile 50 mL conical tubes containing 25 mL PBS/2% FBS (2 buffy coats per 50 mL conical). PBS/2% FBS was added to the buffy coat cells such that the final volume in the tube was 50 mL. The tubes were then centrifuged at 200×g for 15 min. at room temperature. The supernatant was discarded and the pellet re-suspended in 10-20 mL of DMEM (Pfizer media prep) Assay media/0.2% BSA (Miltenyi #130-091-376). A differential cell count was performed using a haemacytometer and cells were diluted to 1.1×10^6 T cells/ml in DMEM/0.2% BSA media. Compounds (10 mM-0.3 μM) were diluted with Hanks Balanced Salt Solution (HBSS) (Sigma #H6648) at 1:100 dilution. Immediately following cell isolation and compound dilution, 90 μl/well of T cells (˜1×10^6/ml) in assay medium (DMEM+0.2% BSA) was added to the VWR Deep well V bottom plate (#3906-520-300). 10 μl/well of compound (final concentration range of 10 μM-0.3 nM with 0.1% DMSO) or 0.1% DMSO in HBSS as controls was added to the appropriate wells. Plates were incubated for 1 hour at 37° C., 5% CO2 incubator. 10 μl of 3.3 μg/mL rhIL-2 (R&D Systems #202-IL) was added to the cells (300 ng/ml final assay concentration). Wells containing T cells, medium with 0.1% DMSO and no rhIL-2 were used as background controls. […]
as §1

The structures appear in SMILES notation. Where two headings read alike, the source gives them in different places.

Sequence of JAK2 (O60674 whole entry, species assumed): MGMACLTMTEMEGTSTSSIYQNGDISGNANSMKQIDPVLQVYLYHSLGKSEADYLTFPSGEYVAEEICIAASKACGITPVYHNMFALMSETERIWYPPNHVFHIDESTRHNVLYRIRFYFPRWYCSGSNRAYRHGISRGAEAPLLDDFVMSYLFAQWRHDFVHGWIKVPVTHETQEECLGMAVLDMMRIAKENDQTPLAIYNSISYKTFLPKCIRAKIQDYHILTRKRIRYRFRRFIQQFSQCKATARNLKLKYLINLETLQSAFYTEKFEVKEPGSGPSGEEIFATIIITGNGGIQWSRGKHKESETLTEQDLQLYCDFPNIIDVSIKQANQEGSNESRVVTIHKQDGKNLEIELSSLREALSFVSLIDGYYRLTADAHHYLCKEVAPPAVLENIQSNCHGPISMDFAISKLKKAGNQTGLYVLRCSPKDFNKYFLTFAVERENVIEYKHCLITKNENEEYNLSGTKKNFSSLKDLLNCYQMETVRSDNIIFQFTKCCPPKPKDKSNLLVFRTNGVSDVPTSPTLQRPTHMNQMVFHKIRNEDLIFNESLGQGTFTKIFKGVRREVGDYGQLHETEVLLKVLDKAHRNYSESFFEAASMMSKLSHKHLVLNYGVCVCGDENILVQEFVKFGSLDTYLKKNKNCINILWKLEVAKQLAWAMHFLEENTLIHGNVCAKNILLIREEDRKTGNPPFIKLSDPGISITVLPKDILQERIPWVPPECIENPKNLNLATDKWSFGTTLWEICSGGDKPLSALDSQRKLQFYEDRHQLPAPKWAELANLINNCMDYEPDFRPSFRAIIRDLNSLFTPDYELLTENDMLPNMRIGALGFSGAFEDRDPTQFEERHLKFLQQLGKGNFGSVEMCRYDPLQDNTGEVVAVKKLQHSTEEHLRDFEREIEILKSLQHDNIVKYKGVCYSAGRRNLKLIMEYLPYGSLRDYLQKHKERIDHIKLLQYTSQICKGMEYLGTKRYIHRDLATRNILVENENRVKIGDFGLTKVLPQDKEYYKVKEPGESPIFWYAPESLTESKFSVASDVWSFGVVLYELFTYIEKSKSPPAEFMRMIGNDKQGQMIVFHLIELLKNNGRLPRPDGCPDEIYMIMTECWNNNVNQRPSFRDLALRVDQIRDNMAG
Sequence of TYK2 (P29597 whole entry, species assumed): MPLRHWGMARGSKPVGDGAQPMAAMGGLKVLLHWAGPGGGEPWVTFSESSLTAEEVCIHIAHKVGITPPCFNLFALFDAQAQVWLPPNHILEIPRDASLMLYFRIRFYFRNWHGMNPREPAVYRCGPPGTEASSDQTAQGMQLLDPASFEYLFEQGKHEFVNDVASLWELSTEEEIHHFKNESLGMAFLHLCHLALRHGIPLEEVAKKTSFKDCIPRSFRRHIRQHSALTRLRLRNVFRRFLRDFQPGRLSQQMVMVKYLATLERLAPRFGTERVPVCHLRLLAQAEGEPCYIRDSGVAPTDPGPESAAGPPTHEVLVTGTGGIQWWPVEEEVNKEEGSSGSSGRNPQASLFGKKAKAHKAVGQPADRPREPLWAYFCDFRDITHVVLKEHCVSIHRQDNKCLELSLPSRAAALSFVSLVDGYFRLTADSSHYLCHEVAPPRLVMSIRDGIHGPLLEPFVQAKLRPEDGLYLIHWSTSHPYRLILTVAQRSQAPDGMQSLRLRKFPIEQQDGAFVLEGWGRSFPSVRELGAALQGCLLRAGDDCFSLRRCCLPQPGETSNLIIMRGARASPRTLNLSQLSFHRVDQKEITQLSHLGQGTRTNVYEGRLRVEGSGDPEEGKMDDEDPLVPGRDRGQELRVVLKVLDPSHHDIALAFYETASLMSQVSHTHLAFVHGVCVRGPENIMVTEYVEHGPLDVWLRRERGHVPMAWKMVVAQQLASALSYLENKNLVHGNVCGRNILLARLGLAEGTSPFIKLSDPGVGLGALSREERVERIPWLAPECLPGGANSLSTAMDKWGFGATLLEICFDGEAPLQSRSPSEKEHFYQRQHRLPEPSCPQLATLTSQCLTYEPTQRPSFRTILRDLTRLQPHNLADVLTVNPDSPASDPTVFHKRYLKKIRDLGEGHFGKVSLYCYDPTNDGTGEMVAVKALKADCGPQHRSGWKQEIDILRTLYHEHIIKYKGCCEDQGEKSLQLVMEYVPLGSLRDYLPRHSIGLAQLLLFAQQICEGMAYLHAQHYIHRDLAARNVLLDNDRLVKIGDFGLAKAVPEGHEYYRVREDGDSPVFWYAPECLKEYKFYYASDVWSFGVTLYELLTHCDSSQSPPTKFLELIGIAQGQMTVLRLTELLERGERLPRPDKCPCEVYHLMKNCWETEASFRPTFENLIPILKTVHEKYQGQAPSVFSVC
Sequence of JAK1 (P23458 whole entry, species assumed): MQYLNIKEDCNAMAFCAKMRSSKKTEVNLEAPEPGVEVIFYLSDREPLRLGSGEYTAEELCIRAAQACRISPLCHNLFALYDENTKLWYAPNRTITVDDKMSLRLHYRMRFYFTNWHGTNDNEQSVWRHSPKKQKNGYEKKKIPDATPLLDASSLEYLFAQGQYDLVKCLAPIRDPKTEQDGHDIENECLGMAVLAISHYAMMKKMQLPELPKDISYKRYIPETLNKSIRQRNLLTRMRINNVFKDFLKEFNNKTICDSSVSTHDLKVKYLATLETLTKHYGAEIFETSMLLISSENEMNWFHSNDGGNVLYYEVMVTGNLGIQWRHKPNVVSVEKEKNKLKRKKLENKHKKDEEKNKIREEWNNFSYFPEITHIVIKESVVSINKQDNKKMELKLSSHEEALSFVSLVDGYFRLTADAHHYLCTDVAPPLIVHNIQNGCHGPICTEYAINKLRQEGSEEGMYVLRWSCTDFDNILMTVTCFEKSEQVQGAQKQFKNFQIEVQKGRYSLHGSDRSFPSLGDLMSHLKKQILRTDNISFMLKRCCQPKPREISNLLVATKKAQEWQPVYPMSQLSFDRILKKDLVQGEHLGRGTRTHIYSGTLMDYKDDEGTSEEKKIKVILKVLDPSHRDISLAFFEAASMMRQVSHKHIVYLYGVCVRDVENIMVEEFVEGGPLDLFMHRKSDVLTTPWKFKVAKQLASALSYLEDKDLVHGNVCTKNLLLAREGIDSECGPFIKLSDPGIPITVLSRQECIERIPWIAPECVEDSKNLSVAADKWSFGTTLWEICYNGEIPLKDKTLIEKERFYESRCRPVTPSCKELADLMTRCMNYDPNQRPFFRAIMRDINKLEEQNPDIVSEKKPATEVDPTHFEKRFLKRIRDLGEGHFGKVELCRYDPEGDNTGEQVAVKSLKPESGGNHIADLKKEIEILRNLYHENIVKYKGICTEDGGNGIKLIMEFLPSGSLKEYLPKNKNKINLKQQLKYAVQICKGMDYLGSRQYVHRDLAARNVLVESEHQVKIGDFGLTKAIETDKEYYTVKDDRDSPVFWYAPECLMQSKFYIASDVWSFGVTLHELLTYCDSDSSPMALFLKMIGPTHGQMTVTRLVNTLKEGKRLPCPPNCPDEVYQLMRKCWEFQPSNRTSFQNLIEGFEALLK

As usually defined, the IC50 is the point on the concentration scale where inhibition reaches its midpoint. As for `Cc1ccc(-c2nnc(-c3n[nH]c4cc(-c5cc(F)c(O)cc5CC(F)(F)F)nc(NCc5ccccc5N(C)S(C)(=O)=O)c34)[nH]2)cn1` [Example 166, N-{2-[({6-[5-fFuoro-4-hydroxy-2-(2,2,2-trifluoroethyl)phenyl]-3-[5-(6-methylpyridin-3-yl)-4H-1,2,4-triazol-3-yl]-1H-pyrazolo[4,3-c]pyridin-4-yl}amino)methyl]phenyl}-N-methylmethanesulfonamide], the IC50 in experiment [1] worked out at 20.9 nM; in experiment [2], 97.4 nM; in experiment [3], 322 nM; in experiment [4], 126 nM; in experiment [5] it was 697 nM; in experiment [6] it was 591 nM.

Turning to `CN(C)CCNC(=O)N1CCc2[nH]c(-c3n[nH]c4nc(-c5cc(F)c(O)cc5CC(F)(F)F)nc(NCc5cc(O)ccc5N(C)S(C)(=O)=O)c34)nc2C1` [Example 171, N-[2-(Dimethylamino)ethyl]-2-{6-[5-fluoro-4-hydroxy-2-(2,2,2-trifluoroethyl)phenyl]-4-({5-hydroxy-2-[methyl(methylsulfonyl)amino]benzyl}amino)-1H-pyrazolo[3,4-d]pyrimidin-3-yl}-1,4,6,7-tetrahydro-5H-imidazo[4,5-c]pyridine-5-carboxamide], the IC50 in experiment [5] (Homo sapiens) was 1580 nM; in experiment [6] (T-cell), 1090 nM.

For the molecule `CNC(=O)c1n[nH]c2nc(-c3cc(F)c(O)cc3CC(F)(F)F)nc(NCc3cc(F)ccc3N(C)S(C)(=O)=O)c12` [Example 104, 4-((5-fluoro-2-(N-methylmethylsulfon-amido)benzyl)amino)-6-(5-fluoro-4-hydroxy-2-(2,2,2-trifluoroethyl)phenyl)-N-methyl-1H-pyrazolo[3,4-d]pyrimidine-3-carboxamide], the IC50 is 10.4 nM in experiment [1]; 66.1 nM in experiment [2]; 113 nM in experiment [3]; 1380 nM in experiment [4]; 292 nM in experiment [5].

Consider `CNC(=O)c1n[nH]c2cc(-c3cc(F)c(O)cc3CC(F)(F)F)nc(NCc3ccccc3N(C)S(C)(=O)=O)c12` [Example 20, 6-[5-fluoro-4-hydroxy-2-(2,2,2-trifluoroethyl)phenyl]-N-methyl-4-({2-[methyl(methylsulfon-yl)amino]benzyl}ami-no)-1H-pyrazolo[4,3-c]pyridine-3-carboxamide], for which the IC50 in experiment [5] was found to be 18.8 nM; in experiment [6], 31.9 nM.

In the case of `Cc1nnc(-c2n[nH]c3cc(-c4cc(F)c(O)cc4CC(F)(F)F)nc(NCc4ccccc4N(C)S(C)(=O)=O)c23)[nH]1` [Example 164, N-{2-[({6-[5-Fluoro-4-hydroxy-2-(2,2,2-trifluoroethyl)phenyl]-3-(5-methyl-4H-1,2,4-triazol-3-yl)-1H-pyrazolo[4,3-c]pyridin-4-yl}amino)methyl]phenyl}-N-methylmethanesulfonamide], the IC50 came to 3020 nM in experiment [5] (Homo sapiens) and 3900 nM in experiment [6] (T-cell).

The values are drawn from patent US9518052B2, “Pyrazolopyridines and pyrazolopyrimidines” (Pfizer Inc., priority 2014, dated 2016).
